This data set can be described thus: DL50 (acute lethal dose). The settings on record: species, route and unit not given.
For `CC(CCn1nc2ccccn2c1=O)N1CCN(c2cccc(Cl)c2)CC1` (centres unmarked) [(I) R=R"=R'''=H; R'=CH₃, 2-[3-[4-(3-chlorophenyl)-1-piperazinyl]-3-methylpropyl]-1,2,4-triazole-[4,3-a]-pyridin-3(2H)-one], the DL₅₀ is no more than 300.

In the case of `CC1CN(CCCn2nc3ccccn3c2=O)CCN1c1cccc(Cl)c1` (centres unmarked) [(I) R=R'=R"=H; R'''=CH₃, 2-[3-[4-(3-chlorophenyl)-1-(3-methyl)-piperazinyl]-propyl]-1,2,4-triazole-[4,3-a]-pyridin-3(2H)-one], the DL₅₀ was no more than 600.

Regarding `O=c1n(CCCN2CCN(c3cccc(Cl)c3)CC2)nc2ccccn12` [trazodone, Trazodone, reference compound], the DL₅₀ is recorded as no less than 200.

Take `CC1CN(c2cccc(Cl)c2)CCN1CCCn1nc2ccccn2c1=O` (centres unmarked) [(I) R=R'=R'''=H; R"=CH₃, 2-[3-[4-(3-chlorophenyl)-1-(2-methyl)-piperazinyl]-propyl]-1,2,4-triazole-[4,3-a]-pyridin-3(2H)-one]: the DL₅₀ turned out to be 300.

`CC(CN1CCN(c2cccc(Cl)c2)CC1)Cn1nc2ccccn2c1=O` (centres unmarked) [(I) R'=R"=R'''=H; R=CH₃, 2-[3-[4-(3-chlorophenyl)-1-piperazinyl]-2-methylpropyl]-1,2,4-triazole[4,3-a]-pyridin-3-(2H)-one] yielded a DL₅₀ of no more than 600.

(Values after patent publication EP0623131B1 (ANGELINI RICERCHE S.p.A. SOCIETA' CONSORTILE, priority 1992, dated 1993).)
